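Each compound was tested at five concentrations against cells in 96-well plates for 48 hours. The concentration for 50% growth inhibition is given as GI50.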 Active and inactive are the calls of the source. Rule as the data show it: active = GI50 up to about 1.1 µM and inactive = higher.
Columns and labels:
Assay in all cases: inhibition of tumour cell growth, NCI panel, 48 h
DMS-114 = tested on: DMS-114
DMS-273 = tested on: DMS-273
HOP-18 = tested on: HOP-18
KM-20L2 = tested on: KM-20L2
LXFL 529 = tested on: LXFL 529
M19-MEL = tested on: M19-MEL
XF498 = tested on: XF498
DLD-1 = tested on: DLD-1
RXF 631 = tested on: RXF 631

Compound	GI50 (DMS-114)	GI50 (DMS-273)	GI50 (HOP-18)	GI50 (KM-20L2)	GI50 (LXFL 529)	GI50 (M19-MEL)	GI50 (XF498)	GI50 (DLD-1)	GI50 (RXF 631)
CC(=O)O[C@]12CCCCCC1C1(O)C(O)CCC[C@H]12 (stereo partly specified)	> 100 µM (inactive)	> 100 µM (inactive)	> 100 µM (inactive)	> 100 µM (inactive)	> 100 µM (inactive)	> 100 µM (inactive)	> 100 µM (inactive)	–	–
CC1(c2ccccc2Cl)C(C#N)C(=O)NC(=O)C1C#N (stereo unspecified)	30.9 µM (inactive)	33.6 µM (inactive)	–	36.1 µM (inactive)	27 µM (inactive)	35.3 µM (inactive)	–	68.7 µM (inactive)	–
COC1=CC(=O)C(O)=C(CC2(C)C(C)CCC3(C)C2CCCC3(C)C)C1=O (stereo unspecified)	2.57 µM (inactive)	3.47 µM (inactive)	2.65 µM (inactive)	2.42 µM (inactive)	5.41 µM (inactive)	2.16 µM (inactive)	4.14 µM (inactive)	5.53 µM (inactive)	25.7 µM (inactive)
COc1cccc(/C=C(\NC(C)=O)c2nc3cc(Cl)ccc3[nH]2)c1	> 100 µM (inactive)	–	–	> 100 µM (inactive)	> 100 µM (inactive)	> 100 µM (inactive)	> 100 µM (inactive)	> 100 µM (inactive)	–
CSc1snc2sc3c(Cl)nnnc3c12	13.2 µM (inactive)	11.4 µM (inactive)	19.1 µM (inactive)	14 µM (inactive)	2.11 µM (inactive)	9.35 µM (inactive)	14.4 µM (inactive)	10 µM (inactive)	16.1 µM (inactive)
CC(=O)/C(=C\c1cccc([N+](=O)[O-])c1)C(=O)Nc1ccccc1C	> 100 µM (inactive)	–	> 100 µM (inactive)	> 100 µM (inactive)	> 100 µM (inactive)	> 100 µM (inactive)	> 100 µM (inactive)	> 100 µM (inactive)	–
O=C(COC(=O)c1cccc2c(=O)c3ccccc3[nH]c12)Nc1ccc(S(=O)(=O)Nc2ncccn2)cc1	43.4 µM (inactive)	27.5 µM (inactive)	–	65.9 µM (inactive)	47.5 µM (inactive)	48.2 µM (inactive)	26.5 µM (inactive)	> 100 µM (inactive)	94 µM (inactive)
O=C(COc1ccc2c(=O)cc(-c3ccccc3)oc2c1)N1CCN(c2ccccc2)CC1	24.5 µM (inactive)	–	41.9 µM (inactive)	37.7 µM (inactive)	34.1 µM (inactive)	62.2 µM (inactive)	–	–	–
COc1ccc(/C=c2/sc3n(c2=O)NC2(CCC(C)CC2)NN=3)cc1 (stereo unspecified)	50 µM (inactive)	> 100 µM (inactive)	–	> 100 µM (inactive)	> 100 µM (inactive)	> 100 µM (inactive)	> 100 µM (inactive)	> 100 µM (inactive)	–
CN1C(c2ccccc2)CC(=NOCc2ccccc2)CC1c1ccccc1 (stereo unspecified)	17.7 µM (inactive)	33.7 µM (inactive)	48 µM (inactive)	> 80.2 µM (inactive)	16.8 µM (inactive)	> 100 µM (inactive)	> 100 µM (inactive)	46.7 µM (inactive)	31.2 µM (inactive)
Cc1c(Cl)ccc2c1NC(=O)C2(O)CC(=O)c1cccc2ccccc12 (stereo unspecified)	18.3 µM (inactive)	40.1 µM (inactive)	77.3 µM (inactive)	51.8 µM (inactive)	> 100 µM (inactive)	18.3 µM (inactive)	> 100 µM (inactive)	> 100 µM (inactive)	–
COc1ccc([Se]c2ccc(OC)cc2OC)c(OC)c1	3.44 µM (inactive)	3.85 µM (inactive)	20.2 µM (inactive)	8.38 µM (inactive)	30.1 µM (inactive)	9.46 µM (inactive)	24.9 µM (inactive)	17.4 µM (inactive)	22.1 µM (inactive)
O=c1c2cccnc2ncn1CCCN1CCCC1	86.1 µM (inactive)	> 100 µM (inactive)	–	–	–	> 100 µM (inactive)	> 100 µM (inactive)	> 100 µM (inactive)	–
O=C(OCN1C(=O)C2C3C=CC(C2C1=O)C1C2C(=O)N(COC(=O)C4CCCN4)C(=O)C2C31)C1CCCN1 (stereo unspecified)	25.9 µM (inactive)	38.5 µM (inactive)	> 100 µM (inactive)	64.1 µM (inactive)	78.7 µM (inactive)	> 77.8 µM (inactive)	> 75.9 µM (inactive)	34.2 µM (inactive)	> 64.7 µM (inactive)
CNCC(=O)Nc1ccc2c(c1)C(=O)c1ccc(NC(=O)CNC)cc1C2=O	2.03 µM (inactive)	2.6 µM (inactive)	< 0.01 µM (active)	5.3 µM (inactive)	2.8 µM (inactive)	–	3.32 µM (inactive)	9.64 µM (inactive)	–
C=CC1=C(C)c2cc3[nH]c(cc4nc(cc5[nH]c(cc1n2)c(C)c5CCC(=O)N(CC)CC)C(CCC(=O)N(CC)CC)=C4C)c(C)c3C=C	–	–	< 0.01 µM (active)	> 100 µM (inactive)	> 100 µM (inactive)	> 100 µM (inactive)	–	> 100 µM (inactive)	–
CSc1nc(NC2OC(COC(C)=O)C(OC(C)=O)C(OC(C)=O)C2OC(C)=O)c(/N=C/C=N/c2c(NC3OC(COC(C)=O)C(OC(C)=O)C(OC(C)=O)C3OC(C)=O)nc(SC)[nH]c2=O)c(=O)[nH]1 (stereo unspecified)	> 100 µM (inactive)	> 100 µM (inactive)	> 100 µM (inactive)	> 100 µM (inactive)	> 100 µM (inactive)	> 100 µM (inactive)	–	> 100 µM (inactive)	> 100 µM (inactive)
Cc1ccc(-c2cc(-c3ccco3)c(C#N)c(=O)n2C2OC(OC(=O)c3ccccc3)C(OC(=O)c3ccccc3)C2OC(=O)c2ccccc2)cc1 (stereo unspecified)	38.6 µM (inactive)	97.1 µM (inactive)	> 100 µM (inactive)	> 100 µM (inactive)	> 100 µM (inactive)	> 100 µM (inactive)	–	> 100 µM (inactive)	> 100 µM (inactive)
O=C1OCC(C(=O)c2cccc(O)c2)C1=O (stereo unspecified)	> 100 µM (inactive)	> 100 µM (inactive)	> 100 µM (inactive)	> 100 µM (inactive)	> 100 µM (inactive)	> 100 µM (inactive)	–	> 100 µM (inactive)	> 100 µM (inactive)
CCC1(N=[N+]=[N-])C(=O)c2ccccc2N(C)C1=O (stereo unspecified)	> 100 µM (inactive)	> 100 µM (inactive)	82.2 µM (inactive)	> 100 µM (inactive)	> 100 µM (inactive)	> 100 µM (inactive)	–	> 100 µM (inactive)	–
O=C1NC(=O)C(C(=O)C(=O)Nc2ccc(Cl)cc2Cl)C(=O)N1	> 100 µM (inactive)	–	–	> 100 µM (inactive)	> 100 µM (inactive)	> 100 µM (inactive)	–	> 100 µM (inactive)	> 100 µM (inactive)
C#Cc1cccc(NC(=O)/C=C\C(=O)O)c1	–	–	–	> 100 µM (inactive)	> 100 µM (inactive)	–	–	> 100 µM (inactive)	–
O=C(O)CNc1cc(-c2ccccc2)nc(NCC(=O)O)n1	> 100 µM (inactive)	> 100 µM (inactive)	> 100 µM (inactive)	> 100 µM (inactive)	> 100 µM (inactive)	> 100 µM (inactive)	> 100 µM (inactive)	> 100 µM (inactive)	> 100 µM (inactive)
COc1c(C)c2c(c(O)c1C/C=C(\C)CCC(=O)O)C(=O)OC2 [MYCOPHENOLIC ACID]	0.845 µM (active)	0.35 µM (active)	16.1 µM (inactive)	–	0.693 µM (active)	1.28 µM (inactive)	–	0.57 µM (active)	–

From ChEMBL document CHEMBL1201862, “PubChem BioAssay data set” (2004)
